Where a SMILES comes first, the peptide text is derived from it.
Key:
HepG2-2.2.15 cells = assay: Cytotoxicity in the HBV assay (dye uptake cell viability); type: cell-based; conditions: peptide 10 micrograms per ml
HIV-1 = HIV-1 antiviral assay (CPE reduction, MTS readout) in CEM-SS cells; type: cell-based; conditions: peptide 10 micrograms per ml, strain HIV-1111B, 6 days post-infection
CEM-SS cells = assay: Cytotoxicity in the HIV-1 assay (MTS cell viability); conditions: CEM-SS cells, HIV-1 assay; peptide 10 micrograms per ml; MTS
HCMV strain AD169 = assay: HCMV plaque reduction assay in MRC-5 cells; conditions: HCMV AD169 in MRC-5 cells; peptide 10 micrograms per ml; 7-10 days
[1] = system: MRC-5 cells (human embryonal lung fibroblasts); conditions: 6 days
[2] = Cytotoxicity in the HCMV assay (CellTiter 96 cell viability); conditions: human, MRC-5 cells (embryonal lung fibroblasts)
[3] = Cytotoxicity in the HBV assay (dye uptake cell viability); type: cell-based; conditions: human, HepG2-2.2.15 cells (stable line containing HBV ayw genome), peptide 10 micrograms per ml
[4] = system: Methicillin Resistant Staphylococcus Aureus (MRSA); assay: Methicillin resistant Staphylococcus aureus (MRSA) growth inhibition assay; type: cell-based; conditions: peptide 10 micrograms per ml, visual read, scored positive/negative (complete inhibition of macroscopic growth)
Streptococcus pneumoniae = Streptococcus pneumoniae growth inhibition assay; type: cell-based; conditions: peptide 10 micrograms per ml, visual read, scored positive/negative
Excerpt: Results from Streptococcus pneumoniae assay:

[5] = Cytotoxicity in the HIV-1 assay (MTS cell viability); conditions: human, CEM-SS cells (uninfected, cells plus peptide only)
Pseudomonas aeruginosa = Pseudomonas aeruginosa growth inhibition assay; type: cell-based; conditions: peptide 10 micrograms per ml, visual read, scored positive/negative

**Q.** With `Nc1ccn([C@@H]2CS[C@H](CO)O2)c(=O)n1` [3TC, Lamivudine] as the compound, how does the “% Cell viability” value (HepG2-2.2.15 cells) read?
**A.** Its value is 95.8%.

**Q.** Which results are given for `Cc1cn([C@H]2C[C@H](N=[N+]=[N-])[C@@H](CO)O2)c(=O)[nH]c1=O` [AZT]?
**A.** % CPE reduction in HIV-1 infected CEM-SS cells (HIV-1): 99%; % Cell viability (CEM-SS cells): 97%

**Q.** What does the source list for `Nc1nc(O)c2ncn(COC(CO)CO)c2n1` [Ganciclovir]?
**A.** % plaque reduction (HCMV strain AD169): 100%; % Cell viability [1]: 100%

**Q.** What does the source list for `N=C(N)NCCC[C@H](NC(=O)CN)C(=O)NCC(=O)N[C@@H](CC(=O)O)C(=O)N[C@@H](CC(N)=O)C(=O)N1CCC[C@H]1C(=O)O` [Gly-Arg-Gly-Asp-Asn-Pro, Gly-Arg-Gly-Asp-Asn-Pro-OH] (H-GRGDNP-OH)?
**A.** viability at 144 h [2]: 100%; viability at 144 h, 10 micrograms per ml [3]: 95.2%; % inhibition [4]: 0.0%; % inhibition (Streptococcus pneumoniae): 100.0%; viability at 10 micrograms per ml [5]: 100%; % inhibition (Pseudomonas aeruginosa): 0.0%

**Q.** For `CC(C)(C)NC(=O)[C@@H]1CN(Cc2cccnc2)CCN1C[C@@H](O)C[C@@H](Cc1ccccc1)C(=O)N[C@H]1c2ccccc2C[C@H]1O` [Indinavir, indinavir], which “% CPE reduction in HIV-1 infected CEM-SS cells” value (HIV-1) is on record?
**A.** The value was 100%.
